Legend:
Type in all cases: cell-based
EGFR L858R (Ba/F3 cells) [1] = target: T1, EGFR L858R (Ba/F3 cells) (Homo sapiens, UniProt P00533, L858R); experiment: Inhibitor activity on EGFR-dependent cell growth (CellTiter-Glo, 72 h), Ba/F3 EGFR L858R; details: read-out: BaF3 L858R IC50
T1 construct: expressed in transfected cells; host or cells: Ba/F3 (murine pro-B cells), retroviral transduction, puromycin selection, IL3-independent pool
In short: (§1)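 Steps: seed Ba/F3 EGFR-mutant pools (800 cells/well FQEA and exon 19del; 600 L858R/C797S; 400 L858R). Add 120 nL of serially diluted compound and incubate 72 h. Equilibrate to room temperature, add CellTiter-Glo and read after 30 min. Fit IC50.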

[2] = target: T2, EGFR exon 19del (Ba/F3 cells) (Homo sapiens, UniProt P00533); experiment: Inhibitor activity on EGFR-dependent cell growth (CellTiter-Glo, 72 h), Ba/F3 EGFR exon 19del; details: Ba/F3 EGFR exon 19del cell growth, read-out: BaF3 Del19 IC50
In short: as §1

[3] = target: T3, EGFR L858R/C797S (Ba/F3 cells) (Homo sapiens, UniProt P00533, C797S/L858R); experiment: Inhibitor activity on EGFR-dependent cell growth (CellTiter-Glo, 72 h), Ba/F3 EGFR L858R/C797S; details: read-out: BaF3 L858R/C797S IC50
T3 construct: expressed in transfected cells; host or cells: Ba/F3 (murine pro-B cells), retroviral transduction, puromycin selection, IL3-independent pool
Text: Example A. Inhibitor Activity on EGFR-Dependent Cell Growth
Cell lines are generated by transducing Ba/F3 cells with retroviruses containing vectors with EGFR WT, EGFR L858R, EGFR exon 19del, EGFR L858R/C797S, EGFR exon 20 NPG Ins D770_N771, EGFR exon 20 ASV Ins V769_D770, EGFR exon 20 SVD Ins D770_N771, or EGFR exon 20 FQEA Ins A763_V764 genes and a puromycin selection marker. Transduced cells are selected with puromycin for 7 days and are then be transferred into culture media without Interleukin 3 (IL3). EGFR WT cells are maintained with supplemental EGF. Surviving cells are confirmed to express EGFR by Western blot and maintained as a pool. The IC50 date were included in Table 6 and Table 7.
(§2) 1.1 Cells are harvested from flask into cell culture medium and the cell number counted.
1.2 Cells are diluted with culture medium to the desired density and 40 μL of cell suspension is added into each well of 384-well cell culture plate and the seeding density is 800 (FQEA, exon 19del), 600 (WT, NPG, L858R/C797S), or 400 (ASV, SVD, L858R) cells/well.
(§3) 2 Compound Preparation and Treatment
(§4) 2.1 Test compounds are dissolved to 10 mM in a DMSO stock solution. 45 μL of stock solution is transferred to a 384 polypropylene plate (pp-plate). Perform 3-fold, 10-point dilution via transferring 15 μL compound into 30 μL DMSO using a TECAN (EVO200) liquid handler.
(§5) 2.2 Spin plates at room temperature at 1,000 RPM for 1 minute.
2.3 Transfer 120 nL of diluted compound from compound source plate into the cell plate.
2.4 After compound treatment for 72 hours, perform CTG detection for compound treatment plates as described in “Detection” section.
3.1 Plates are removed from incubators and equilibrated at room temperature for 15 minutes.
3.2 Thaw the CellTiter Glo reagents and allow to equilibrate to room temperature before the experiment.
3.3 Add 40 μL of CellTiter-Glo reagent into each well (at 1:1 to culture medium). Then place the plates at room temperature for 30 min followed by reading on EnVision.
4.1 Inhibition activity is calculated following the formula below:
% Inhibition=100×(LumHC−LumSample)/(LumHC−LumLC) • where HC is obtained from cells treated with 0.1% DMSO only; and LC is obtained from culture medium only.
4.2 2. Calculate the IC50 by fitting the Curve using Xlfit (v5.3.1.3), equation 201.
Y=Bottom+(Top−Bottom)/(1+10^((Log IC50−X)*HillSlope))

EGFR L858R (Ba/F3 cells) [4] = target: T1, EGFR L858R (Ba/F3 cells); experiment: Inhibitor activity on EGFR phosphorylation (pEGFR AlphaLISA, 2 h), Ba/F3 EGFR L858R
Text: (§6) Example B. Inhibitor Activity on EGFR phosphorylation (pEGFR)
(§7) EGFR mutant Ba/F3 cells were generated by transduction with retrovirus containing vectors expressing EGFR L858R, EGFR exon 19del, EGFR L858R/C797S, EGFR exon 20 NPG Ins D770_N771, EGFR exon 20 ASV Ins V769_D770, or EGFR exon 20 SVD Ins D770_N771 genes along with a puromycin selection marker. Transduced cells are selected with puromycin for 7 days and are then be transferred into culture media without Interleukin 3 (IL3). Surviving cells are confirmed to express EGFR by Western blot and maintained as a pool. CUTO14 cells were obtained from Dr. Robert C. Doebele at the University of Colorado. The IC50 date are included in Table 6 and Table 7.
as §2
(§8) 1.2 Cells are diluted with culture medium to the desired density and 40 μL of cell suspension is added into each well of 384-well cell culture plate and the seeding density is 50K cells/well (Ba/F3) or 12.5K cells/well (CUTO14).
as §3, §4, §5
(§9) 2.3 Transfer 5 nL of diluted compound from compound source plate into the cell plate.
(§10) 2.4 After compound treatment for 2 hours, perform pEGFR detection by AlphaLISA for compound treatment plates as described in “Detection” section.
(§11) 3 Detection by pEGFR AlphaLISA (Perkin-Elmer)
(§12) 3.1 Plates are removed from incubators and equilibrated at room temperature for 10 minutes, and media was removed
(§13) 3.2 10 μL of lysis buffer is added and plates shaken at 600 rpm for 1 hr.
(§14) 3.3 Prepare acceptor mix just before use and dispense 5 μL of acceptor mix to all the wells. Shake 350 rpm for Ihr in the dark
(§15) 3.4 Prepare donor mix under low light conditions prior to use. Dispense 5 μL of donor mix to all the wells. Mix well on the shaker, seal and wrap in aluminum foil and incubate 1.5 hrs at room temperature in the dark
(§16) 3.5 Transfer 18.5 μL mixture to OptiPlate 384, and read using an Envision. The IC50 date were included in Table 6 and Table 7.

[5] = target: T2, EGFR exon 19del (Ba/F3 cells); experiment: Inhibitor activity on EGFR phosphorylation (pEGFR AlphaLISA, 2 h), Ba/F3 EGFR exon 19del; details: read-out: Del19 IC50 (pEGFR)
Text: as §6, §7, §2, §8, §3, §4, §5, §9, §10, §11, §12, §13, §14, §15, §16

[6] = target: T3, EGFR L858R/C797S (Ba/F3 cells); experiment: Inhibitor activity on EGFR phosphorylation (pEGFR AlphaLISA, 2 h), Ba/F3 EGFR L858R/C797S
Text: as §6, §7, §2, §8, §3, §4, §5, §9, §10, §11, §12, §13, §14, §15, §16

EGFR WT (Ba/F3 cells) = target: T4, EGFR WT (Ba/F3 cells) (Homo sapiens, UniProt P00533); experiment: Inhibitor activity on EGFR-dependent cell growth (CellTiter-Glo, 72 h), Ba/F3 EGFR WT; details: read-out: BaF3 WT IC50
T4 construct: expressed in transfected cells; host or cells: Ba/F3 (murine pro-B cells), retroviral transduction, puromycin selection, maintained with EGF
In short: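 This growth assay used Ba/F3 cells that depend on wild-type EGFR and are kept in EGF without IL3. Compounds were made up as 10 mM DMSO stocks and diluted 3-fold over 10 points. 120 nL went onto 600 cells/well. After 72 hours, 40 μL CellTiter-Glo was added and luminescence read on EnVision after 30 min.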

[7] = target: T5, EGFR exon 20 NPG Ins D770_N771 (Ba/F3 cells) (Homo sapiens, UniProt P00533, INS770NPG); experiment: Inhibitor activity on EGFR-dependent cell growth (CellTiter-Glo, 72 h), Ba/F3 EGFR exon 20 NPG Ins; details: read-out: BaF3 NPG IC50
T5 construct: expressed in transfected cells; host or cells: Ba/F3 (murine pro-B cells), retroviral transduction, puromycin selection, IL3-independent pool
In short: (§17)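 IC50s derive from a sigmoidal dose–response fit of CellTiter-Glo signal. The signal was normalised between […]-treated cells and cell-free medium. Ba/F3 mutant-EGFR cells, seeded at 400–800/well depending on the line, had 72 h of exposure to a 10-point, 3-fold compound series.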

[8] = target: T6, EGFR exon 20 FQEA Ins A763_V764 (Ba/F3 cells) (Homo sapiens, UniProt P00533, INS763FQEA); experiment: Inhibitor activity on EGFR-dependent cell growth (CellTiter-Glo, 72 h), Ba/F3 EGFR exon 20 FQEA Ins; details: read-out: BaF3 FQEA IC50
T6 construct: expressed in transfected cells; host or cells: Ba/F3 (murine pro-B cells), retroviral transduction, puromycin selection, IL3-independent pool
In short: as §1

[9] = target: T7, EGFR exon 20 ASV Ins V769_D770 (Ba/F3 cells) (Homo sapiens, UniProt P00533, INS769ASV); experiment: Inhibitor activity on EGFR-dependent cell growth (CellTiter-Glo, 72 h), Ba/F3 EGFR exon 20 ASV Ins; details: read-out: BaF3 ASV IC50
T7 construct: expressed in transfected cells; host or cells: Ba/F3 (murine pro-B cells), retroviral transduction, puromycin selection, IL3-independent pool
In short: as §17

[10] = target: T8, EGFR exon 20 SVD Ins D770_N771 (Ba/F3 cells) (Homo sapiens, UniProt P00533, INS770SVD); experiment: Inhibitor activity on EGFR-dependent cell growth (CellTiter-Glo, 72 h), Ba/F3 EGFR exon 20 SVD Ins; details: read-out: BaF3 SVD IC50
T8 construct: expressed in transfected cells; host or cells: Ba/F3 (murine pro-B cells), retroviral transduction, puromycin selection, IL3-independent pool
In short: as §17

T3 sequence (P00533 25-1210 C797S/L858R): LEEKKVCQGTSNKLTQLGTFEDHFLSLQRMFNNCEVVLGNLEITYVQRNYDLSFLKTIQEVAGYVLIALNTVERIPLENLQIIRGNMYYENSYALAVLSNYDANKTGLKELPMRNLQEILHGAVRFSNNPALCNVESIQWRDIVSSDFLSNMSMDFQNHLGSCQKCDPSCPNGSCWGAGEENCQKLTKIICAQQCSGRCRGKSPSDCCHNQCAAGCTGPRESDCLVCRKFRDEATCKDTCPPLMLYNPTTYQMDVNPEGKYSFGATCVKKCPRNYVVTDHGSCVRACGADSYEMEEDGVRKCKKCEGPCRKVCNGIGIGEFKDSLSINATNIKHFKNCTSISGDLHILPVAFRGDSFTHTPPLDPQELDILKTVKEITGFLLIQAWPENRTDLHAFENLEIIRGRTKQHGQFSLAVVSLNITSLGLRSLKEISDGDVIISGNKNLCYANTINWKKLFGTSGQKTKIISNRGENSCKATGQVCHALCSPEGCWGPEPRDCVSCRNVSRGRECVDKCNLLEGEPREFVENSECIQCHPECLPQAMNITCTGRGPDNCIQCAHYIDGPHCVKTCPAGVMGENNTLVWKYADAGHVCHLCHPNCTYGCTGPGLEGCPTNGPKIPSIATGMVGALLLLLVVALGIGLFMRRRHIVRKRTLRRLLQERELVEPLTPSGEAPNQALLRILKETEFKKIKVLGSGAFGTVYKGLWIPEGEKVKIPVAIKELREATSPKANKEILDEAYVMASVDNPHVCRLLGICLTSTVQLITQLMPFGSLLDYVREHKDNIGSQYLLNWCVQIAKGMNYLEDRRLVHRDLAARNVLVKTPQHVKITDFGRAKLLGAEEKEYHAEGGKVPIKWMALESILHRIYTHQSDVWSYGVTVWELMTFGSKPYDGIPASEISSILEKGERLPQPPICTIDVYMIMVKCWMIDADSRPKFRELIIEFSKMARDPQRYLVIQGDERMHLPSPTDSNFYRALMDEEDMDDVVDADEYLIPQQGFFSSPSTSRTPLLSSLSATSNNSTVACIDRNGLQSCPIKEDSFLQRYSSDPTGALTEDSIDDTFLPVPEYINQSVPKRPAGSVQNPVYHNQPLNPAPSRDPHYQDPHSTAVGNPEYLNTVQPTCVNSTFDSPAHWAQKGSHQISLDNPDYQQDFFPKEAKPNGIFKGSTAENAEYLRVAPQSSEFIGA
T6 sequence (P00533 with tags, fused parts or gaps INS763FQEA): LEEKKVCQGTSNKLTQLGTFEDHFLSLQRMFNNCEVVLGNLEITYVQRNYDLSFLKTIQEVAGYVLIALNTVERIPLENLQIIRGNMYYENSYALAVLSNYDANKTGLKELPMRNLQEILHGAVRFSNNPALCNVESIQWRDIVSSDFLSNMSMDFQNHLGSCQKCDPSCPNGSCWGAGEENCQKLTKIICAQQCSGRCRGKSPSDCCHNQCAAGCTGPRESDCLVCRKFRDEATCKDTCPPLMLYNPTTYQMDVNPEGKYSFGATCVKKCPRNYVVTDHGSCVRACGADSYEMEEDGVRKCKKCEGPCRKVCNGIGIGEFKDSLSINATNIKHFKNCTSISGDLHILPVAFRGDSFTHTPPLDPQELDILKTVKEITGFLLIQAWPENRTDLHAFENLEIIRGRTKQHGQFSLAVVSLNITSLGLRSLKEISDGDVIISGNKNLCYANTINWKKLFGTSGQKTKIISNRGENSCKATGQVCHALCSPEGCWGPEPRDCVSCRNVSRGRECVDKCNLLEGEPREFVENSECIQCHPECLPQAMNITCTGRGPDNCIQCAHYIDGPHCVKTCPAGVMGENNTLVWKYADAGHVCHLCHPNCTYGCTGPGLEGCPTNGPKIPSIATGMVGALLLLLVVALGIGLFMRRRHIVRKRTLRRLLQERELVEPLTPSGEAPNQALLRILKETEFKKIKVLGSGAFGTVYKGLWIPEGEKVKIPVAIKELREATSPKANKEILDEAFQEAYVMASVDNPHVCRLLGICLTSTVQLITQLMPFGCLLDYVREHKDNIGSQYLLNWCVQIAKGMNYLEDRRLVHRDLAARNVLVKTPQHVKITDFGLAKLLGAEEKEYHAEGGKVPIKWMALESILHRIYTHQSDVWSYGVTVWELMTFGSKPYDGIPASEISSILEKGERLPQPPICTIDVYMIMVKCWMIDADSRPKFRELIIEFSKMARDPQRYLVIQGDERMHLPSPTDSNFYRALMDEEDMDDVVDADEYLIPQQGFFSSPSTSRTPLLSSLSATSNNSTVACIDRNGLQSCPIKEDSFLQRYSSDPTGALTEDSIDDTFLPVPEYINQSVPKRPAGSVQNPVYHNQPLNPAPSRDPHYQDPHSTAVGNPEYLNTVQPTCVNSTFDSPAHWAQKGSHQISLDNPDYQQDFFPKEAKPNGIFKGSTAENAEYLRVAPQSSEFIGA
T8 sequence (P00533 with tags, fused parts or gaps INS770SVD): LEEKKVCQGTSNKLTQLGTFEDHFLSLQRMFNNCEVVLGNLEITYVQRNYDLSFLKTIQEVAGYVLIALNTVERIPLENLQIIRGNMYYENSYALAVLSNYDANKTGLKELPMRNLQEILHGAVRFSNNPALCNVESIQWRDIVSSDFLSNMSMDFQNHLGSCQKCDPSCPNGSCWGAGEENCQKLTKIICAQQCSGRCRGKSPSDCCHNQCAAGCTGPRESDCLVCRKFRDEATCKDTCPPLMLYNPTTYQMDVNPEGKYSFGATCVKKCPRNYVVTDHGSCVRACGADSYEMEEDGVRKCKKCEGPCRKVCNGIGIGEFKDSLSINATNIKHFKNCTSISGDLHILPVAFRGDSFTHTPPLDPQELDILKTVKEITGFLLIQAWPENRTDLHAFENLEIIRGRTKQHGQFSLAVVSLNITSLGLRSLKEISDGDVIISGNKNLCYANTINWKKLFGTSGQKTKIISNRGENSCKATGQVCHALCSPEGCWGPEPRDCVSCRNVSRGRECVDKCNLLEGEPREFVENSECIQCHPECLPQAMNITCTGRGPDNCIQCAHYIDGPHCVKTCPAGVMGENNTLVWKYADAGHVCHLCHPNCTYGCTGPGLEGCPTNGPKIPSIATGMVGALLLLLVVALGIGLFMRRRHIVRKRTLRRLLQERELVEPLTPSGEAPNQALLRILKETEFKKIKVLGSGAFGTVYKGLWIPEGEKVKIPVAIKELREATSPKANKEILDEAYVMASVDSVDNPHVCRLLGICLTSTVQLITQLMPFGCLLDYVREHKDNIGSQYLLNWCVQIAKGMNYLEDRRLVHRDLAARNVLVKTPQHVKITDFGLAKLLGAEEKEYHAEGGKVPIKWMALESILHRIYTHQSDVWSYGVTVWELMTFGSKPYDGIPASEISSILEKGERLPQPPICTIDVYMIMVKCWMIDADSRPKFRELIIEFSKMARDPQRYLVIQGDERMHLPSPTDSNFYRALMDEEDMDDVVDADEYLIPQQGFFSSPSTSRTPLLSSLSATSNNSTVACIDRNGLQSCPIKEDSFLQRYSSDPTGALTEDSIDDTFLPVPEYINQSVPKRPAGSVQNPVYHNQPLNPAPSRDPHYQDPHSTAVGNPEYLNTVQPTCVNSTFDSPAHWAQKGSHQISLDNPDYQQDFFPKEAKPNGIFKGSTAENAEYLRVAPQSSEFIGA
T4 sequence (P00533 25-1210): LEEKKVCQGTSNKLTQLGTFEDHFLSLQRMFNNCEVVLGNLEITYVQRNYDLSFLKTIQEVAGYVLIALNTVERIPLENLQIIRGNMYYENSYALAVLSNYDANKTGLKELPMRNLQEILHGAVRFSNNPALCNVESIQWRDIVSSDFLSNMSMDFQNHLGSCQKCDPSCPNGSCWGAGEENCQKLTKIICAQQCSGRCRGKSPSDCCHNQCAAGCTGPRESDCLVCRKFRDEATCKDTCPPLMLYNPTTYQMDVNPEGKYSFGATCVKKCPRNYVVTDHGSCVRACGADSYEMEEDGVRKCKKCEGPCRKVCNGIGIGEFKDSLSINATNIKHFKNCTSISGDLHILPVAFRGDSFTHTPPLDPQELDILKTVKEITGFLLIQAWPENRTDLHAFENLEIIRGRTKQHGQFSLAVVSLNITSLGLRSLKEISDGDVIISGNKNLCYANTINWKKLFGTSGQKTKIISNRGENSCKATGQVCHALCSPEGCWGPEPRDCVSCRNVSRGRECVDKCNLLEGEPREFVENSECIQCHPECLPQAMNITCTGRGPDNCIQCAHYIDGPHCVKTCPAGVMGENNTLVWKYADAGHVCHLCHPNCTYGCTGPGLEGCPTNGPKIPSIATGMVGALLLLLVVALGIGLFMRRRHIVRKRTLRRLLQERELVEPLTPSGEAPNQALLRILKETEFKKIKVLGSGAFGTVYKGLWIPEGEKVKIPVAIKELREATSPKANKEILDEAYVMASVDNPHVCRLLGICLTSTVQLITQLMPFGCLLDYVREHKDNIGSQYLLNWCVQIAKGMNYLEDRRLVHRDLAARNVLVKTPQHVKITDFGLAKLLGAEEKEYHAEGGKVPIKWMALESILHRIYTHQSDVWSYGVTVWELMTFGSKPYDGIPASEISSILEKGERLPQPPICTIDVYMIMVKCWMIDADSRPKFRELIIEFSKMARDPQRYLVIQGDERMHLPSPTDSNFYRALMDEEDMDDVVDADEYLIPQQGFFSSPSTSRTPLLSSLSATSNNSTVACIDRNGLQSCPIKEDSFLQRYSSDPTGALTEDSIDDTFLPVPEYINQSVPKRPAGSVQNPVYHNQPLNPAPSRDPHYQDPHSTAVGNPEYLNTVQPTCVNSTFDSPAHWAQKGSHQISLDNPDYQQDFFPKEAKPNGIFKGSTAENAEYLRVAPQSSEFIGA

Structure (SMILES)	IC50 (EGFR L858R (Ba/F3 cells) [1]) [nM]	IC50 [2] [nM]	IC50 [3] [nM]	IC50 (EGFR L858R (Ba/F3 cells) [4]) [nM]	IC50 [5] [nM]	IC50 [6] [nM]	IC50 (EGFR WT (Ba/F3 cells)) [nM]	IC50 [7] [nM]	IC50 [8] [nM]	IC50 [9] [nM]	IC50 [10] [nM]
COc1c(Cl)cccc1Nc1c(-c2ccncc2F)[nH]c2c1C(=O)NC[C@H]2CC1COCCO1 (stereo in doubt) [Compound 480, (7R)-3-[(3-chloro-2-methoxyphenyl)amino]-7-[(2R)-1,4-dioxan-2-ylmethyl]-2-(3-fluoropyridin-4-yl)-1H,5H,6H,7H-pyrrolo[3,2-c]pyridin-4-one]	< 100	< 100	< 100	< 100	< 100	< 100	100 to 1000	< 100	< 100		
COc1c(Cl)cccc1Nc1c(-c2ccncc2F)[nH]c2c1C(=O)NC[C@]21CCN(CC(F)F)C1 [compound 821]	< 100	< 100	< 100	< 100	< 100	< 100	100 to 1000	< 100	< 100	< 100	< 100
COc1c(F)cccc1Nc1c(-c2ccnc3ccc(OC4(C)COC4)nc23)[nH]c2c1C(=O)NCC2 [Compound 788, 3-[(3-fluoro-2-methoxyphenyl)amino]-2-[6-[(3-methyloxetan-3-yl)oxy]-1,5-naphthyridin-4-yl]-1H,5H,6H,7H-pyrrolo[3,2-c]pyridin-4-one]	< 100	< 100	< 100	< 100	< 100	< 100	< 100	< 100	< 100	< 100	< 100
CCOc1ncc2nccc(-c3[nH]c4c(c3Nc3cccc(Cl)c3OC)C(=O)NCC4)c2n1 [compound 827, 3-[(3-chloro-2-methoxyphenyl)amino]-2-{2-ethoxypyrido[3,2-d]pyrimidin-8-yl}-1H,5H,6H,7H-pyrrolo[3,2-c]pyridin-4-one]	< 100	< 100	< 100	< 100	< 100	< 100	< 100	< 100	< 100	< 100	< 100
COc1c(Cl)cccc1Nc1c(-c2ccnc3ccc(C)nc23)[nH]c2c1C(=O)NCC2 [compound 749, 3-[(3-chloro-2-methoxyphenyl)amino]-2-(6-methyl-1,5-naphthyridin-4-yl)-1H,5H,6H,7H-pyrrolo[3,2-c]pyridin-4-one]	< 100	< 100	< 100	< 100	< 100	< 100	100 to 1000	< 100	< 100	< 100	< 100
COc1c(F)cccc1Nc1c(-c2ccncc2F)[nH]c2c1C(=O)NC[C@H]2CC1COCCO1 (stereo in doubt) [Compound 575, (7R)-7-[(2R)-1,4-dioxan-2-ylmethyl]-3-[(3-fluoro-2-methoxyphenyl)amino]-2-(3-fluoropyridin-4-yl)-1H,5H,6H,7H-pyrrolo[3,2-c]pyridin-4-one]	< 100	< 100	< 100	< 100	< 100	< 100	100 to 1000	< 100		< 100	< 100
COc1c(F)cccc1Nc1c(-c2ccncn2)[nH]c2c1C(=O)NCC2C[C@H]1COCCO1 (single isomer, unassigned) [Compound 572, (7R*)-7-[(2S)-1,4-dioxan-2-ylmethyl]-3-[(3-fluoro-2-methoxyphenyl)amino]-2-(pyrimidin-4-yl)-1H,5H,6H,7H-pyrrolo[3,2-c]pyridin-4-one]	< 100	< 100	< 100	< 100	< 100	< 100	> 1000	100 to 1000		100 to 1000	< 100
COc1c(Cl)cccc1Nc1c(-c2ccnc3ccc(OC4(C)COC4)nc23)[nH]c2c1C(=O)NCC2 [Compound 787, 3-[(3-chloro-2-methoxyphenyl)amino]-2-[6-[(3-methyloxetan-3-yl)oxy]-1,5-naphthyridin-4-yl]-1H,5H,6H,7H-pyrrolo[3,2-c] pyridin-4-one]	< 100	< 100	< 100	< 100	< 100	< 100	< 100	< 100	< 100	< 100	< 100

Source: US20240101576A1, “HETEROCYCLIC INHIBITORS OF EGFR AND/OR HER2, FOR USE IN THE TREATMENT OF CANCER” (Scorpion Therapeutics, Inc., priority 2020, published 2024)
